From patent US10265276B2, “Pharmaceutical composition for preventing or treating arthritis or inflammatory disease containing 2-methoxy-4-(3-(4-methoxyphenyl)propyl-1-en-1-yl)phenol as active ingredient” (CHUNGBUK NATIONAL UNIVERSITY INDUSTRY-ACADEMIC COOPERATION …, priority 2015, dated 2019) come the findings set out here.

Test [1] concerns CAIA-induced C57BL/6 mice. The experiment in a line: Collagen antibody-induced arthritis (CAIA) model. The test is classed as in vivo, mouse. The procedure:
14. Induction of rheumatoid arthritis in C57BL/6 mice: To induce rheumatoid arthritis, anti-collagen-II mAbs (CII-Ab, Arthrogen-CIA Arthritogenic Monoclonal Antibody, #53010: Chondrex, Inc., WA, USA) were intraperitoneally (i.p.) injected into 7-week-old male mice on the first day, and 50 μg of LPS was injected on the third day. To evaluate the severity of arthritis, a scoring system was applied according to the criteria.
0. No erythema and swelling are observed.
1. Slight erythema is observed in tarsals and ankle joints.
2. Slight erythema and swelling are observed from an ankle joint to the midfoot.
3. Erythema and swelling extending from ankle joints to the metatarsals are observed.
4. Erythema and severe swelling were observed throughout the ankles, feet, and fingers.
The sum of final scores was recorded daily until the sum reached 16. On the 18th day, each of the mice was anesthetized, and then located on a radiographic view box. Thereafter, a location of each of the mice was adjusted so that the mouse was disposed at a distance of 90 cm from an X-ray source. The radioanalysis on hind legs with arthritis was performed by irradiating the hind legs at […] for 0.01 seconds using an X-ray machine (BLD-150RK, Hradec Kralove, Czech Republic).
15. Immunohistochemical assay: An immunohistochemical assay was carried out using an avidin-biotin-peroxidase method known in the art. Each of joint tissue samples collected from the mice was fixed with formalin, and embedded in paraffin. These samples were continuously microtomed into sections with a thickness of 4 μm. Each of the sections was stained with haematoxylin/eosin (H&E), anti-COX-2 and anti-iNOS antibodies (Caymen Chemical, Ann Arbor, Mich.).
Referring to FIG. 10(A), MMPP (5 mg/kg, p.o.) (dissolved in 100 μL of PBS including 0.5 μL of DMSO), a vehicle (a negative control), or indomethacin (5 mg/kg, p.o./dissolved in […] of PBS after the dissolution) was administered daily to 7-week-old male C57BL/6 mice for 18 days.

A further test addresses T1, STAT3 (Mus musculus, UniProt P42227).
T1 construct: a cell lysate containing a recombinant STAT3 protein or a STAT3 protein; endogenous in cells; host or cells: RAW 264.7
The test can be described thus: Pull-down assay, MMPP conjugated to Sepharose 6B beads. Format: binding. The settings on record: recombinant STAT3 protein and cell lysate containing STAT3 from RAW 264.7 cells. The procedure:
As a method for isolating a protein complex, a pull-down assay is an assay for checking a protein-protein interaction. To identify a protein interacting with MMPP, MMPP was bound to […] epoxy-activated Sepharose 6B (Sigma, St Louis, Mo., United States).
To check the interaction between MMPP and STAT3, a pull-down assay was carried out. MMPP was conjugated to epoxy-activated Sepharose 6B. A pull-down assay was performed using an interaction between a cell lysate containing a recombinant STAT3 protein or a STAT3 protein and MMPP conjugated to Sepharose 6B beads. […] Referring to FIG. 2(D), it can also be seen that the binding of MMPP to mutant STAT3 Thr456A was reduced, compared to the STAT3.

In test [2] the test system is RAW 264.7 cells. The experiment in a line: ROS, PGE2 and pro-inflammatory cytokine assays in LPS-induced RAW 264.7 cells. Format: cell-based, mouse. The settings on record: concentration-dependent manner (0 to 4 mg/mL). The procedure: 7. PEG2 and cytokine Assays: A PGE2 assay was carried out in the cultured RAW 264.7 cells using an ELISA kit (commercially available from R&D Systems).
(§1) 8. ROS Assay: An ROS assay was carried out using an ELISA kit (commercially available from Cell Biolabs Inc.).
RAW 264.7 cells were transiently infected with a STAT3-luciferase construct, treated with LPS (1 μg/mL) alone or a combination of MMPP and LPS, and then activated for 12 hours. Thereafter, the luciferase activity, the ROS and PGE2 expression, and a level of pro-inflammatory cytokines were determined.

The test system of test [3] is RAW 264.7 cells. The experiment in a line: Anti-inflammatory effect in TNF-α-treated RAW 264.7 cells. Format: cell-based, mouse. The settings on record: TNF-α (10 ng/mL), 24 hours. The procedure: (§2) 6. Nitrite assay: RAW 264.7 cells were added to a 96-well plate at a density of 1×10^4 cells/well, and LPS […] and TNF-α (10 ng/mL) were added or not added for 24 hours in the presence or absence of various concentrations of MMPP. Accumulation of nitrites in a supernatant was analyzed using a nitric oxide assay kit commercially available from iNtRON Biotechnology (Seongnam, Korea).
as §1
In Experimental Example 7, an experiment regarding an anti-inflammatory effect of MMPP in TNF-α-treated RAW 264.7 cells was performed.
It was confirmed that, when RAW 264.7 cells were treated with TNF-α (10 ng/mL) in combination with MMPP […] for 24 hours, the NO and ROS generation (FIG. 8(A)), the iNOS and COX2 expression (FIG. 8(B)), and the STAT3 and NF-κB activities (FIGS. 8(C) and (D)) induced by treatment with TNF-α (10 ng/mL) were reduced in the RAW 264.7 cells.

For test [4], the system named is RAW 264.7 cells. The test can be described thus: Nitrite assay (NO generation) in LPS-induced RAW 264.7 cells. Format: cell-based, mouse. The settings on record: LPS (1 µg/mL) and MMPP (0 to 4 µg/mL). As to the method:
as §2
In Experimental Example 4, a luciferase activity assay was carried out to determine whether MMPP inhibited generation of LPS-induced infective factors in RAW 264.7 cells. RAW 264.7 cells were transiently infected with an iNOS-luciferase construct, treated with LPS (1 μg/mL) alone or a combination of MMPP and LPS, and then activated for 12 hours.

The mark [5] stands for this setting: 5 mg/kg, p.o. daily, last (18th) day.

T1 sequence (P42227 whole entry): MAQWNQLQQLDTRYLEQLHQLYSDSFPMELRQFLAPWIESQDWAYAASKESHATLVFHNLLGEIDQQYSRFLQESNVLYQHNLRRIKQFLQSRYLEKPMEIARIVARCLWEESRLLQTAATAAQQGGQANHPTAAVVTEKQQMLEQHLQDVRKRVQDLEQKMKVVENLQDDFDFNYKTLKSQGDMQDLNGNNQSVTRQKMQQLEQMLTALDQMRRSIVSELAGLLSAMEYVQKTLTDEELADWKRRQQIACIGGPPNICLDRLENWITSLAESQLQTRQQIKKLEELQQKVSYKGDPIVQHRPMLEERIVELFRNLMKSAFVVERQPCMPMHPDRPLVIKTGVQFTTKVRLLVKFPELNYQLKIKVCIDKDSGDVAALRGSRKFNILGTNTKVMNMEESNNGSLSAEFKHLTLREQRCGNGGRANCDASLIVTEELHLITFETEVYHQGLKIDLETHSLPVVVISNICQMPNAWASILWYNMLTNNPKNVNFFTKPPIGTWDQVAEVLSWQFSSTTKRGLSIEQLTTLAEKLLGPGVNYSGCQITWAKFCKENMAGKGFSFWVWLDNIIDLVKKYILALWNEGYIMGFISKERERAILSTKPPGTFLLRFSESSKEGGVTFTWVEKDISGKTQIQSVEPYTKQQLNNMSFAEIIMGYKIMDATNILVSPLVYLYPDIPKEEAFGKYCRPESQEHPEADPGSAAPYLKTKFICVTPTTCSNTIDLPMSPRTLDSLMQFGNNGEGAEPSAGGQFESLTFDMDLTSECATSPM

For the molecule `COc1ccc(C/C=C/c2ccc(O)c(OC)c2)cc1` [MMPP, 2-methoxy-4-(3-(4-methoxyphenyl)prop-1-en-1-yl)phenol], in test [1] (5 mg/kg), the “degrees of bone destruction and fibrosis in ankle joints (histopathologic evaluation)” value is recorded as “remarkably reduced”; the “tissue edema and bone destruction of hind legs (radiographic inspection)” value is recorded as “significantly reduced”. In test [1] (setting [5]), the clinical score result is recorded as “approximately 4.67” and the “clinical score lower than that of the CAIA group” value is listed as 66.5%. The “anti-arthritic effect in CAIA model” value in test [1] (mouse, in vivo) is on record as “had an anti-arthritic effect”. Also, the “interaction with STAT3 in pull-down assay” value at STAT3 was “mediated the interaction”. In the test with RAW 264.7 cells [2], the PGE2 expression entry is on record as “inhibited”; the ROS expression entry is recorded as “inhibited”; the “level of pro-inflammatory cytokines (TNF-α, IL-6 and IL-1)” value is listed as “inhibited”. For the same molecule, in the test with RAW 264.7 cells [3], the “NO and ROS generation” value is listed as “reduced”; the “STAT3 and NF-κB activities” value is on record as “reduced”; the “iNOS and COX2 expression” value is given as “reduced”. Besides, the NO generation result in the test with RAW 264.7 cells [4] is reported as “reduced in a concentration-dependent manner”.
